Measurements reported in patent publication US6893830B1, “Method of screening oxysterol activation of LXRα” (The Board of Regents of the University of Texas System, priority 1996, dated 2005).

Test system: RXR/LXR heterodimer
Test: RXR/LXR heterodimer activation, dose response in CV-1 cells with TK-LXREx3-LUC
Format: cell-based, human
Conditions: LXRα expression plasmid, dose-dependent
Description: TK-DR-4-LUC; human vitamin D receptor (VDR)^24, TK-DR^3-LUC; human peroxisome proliferator-activated receptor-α (PPARα)^25, TK-PPREx3-LUC; human farnesol activated receptor (FXR)^11, ΔMTV-EcREx5-LUC; human estrogen receptor (ER)^26, ΔMTV-ERE-LUC; human glucocorticoid receptor (GR)^27, MTV-LUC; Drosophila ecdysone receptor (usp/EcR)^15, ΔMTV-EcREx5-LUC. Cells were treated with ETOH or 6 μM 22(R)-hydroxycholesterol. […] FIG. 3(A)-3(D) Activation of LXRα by 22(R)-hydroxycholesterol in Drosophila (SL-2) cells. […] CV-1 cells were cotransfected with TK-LXREx3-LUC reporter plasmid and expression plasmids containing the indicated receptor combinations, and then treated with the indicated ligands. […] CV-1 cells cotransfected with the LXRα expression plasmid and TK-LXREx3-LUC reporter were treated with 9-cis RA, 22(R)-hydroxycholesterol, or both, at the indicated concentrations.
In FIG. 3B. Drosophila SL-2 cells were transfected and assayed as previously described^5 in 6-well plates with […] A5C-hLXRα or A5C-hLXRα, 0.5 mg ADH-LXREx2-LUC, 0.2 mg A5C-βGAL and […] PGEM4 carrier DNA per well.
A subset of receptors that function as RXR heterodimers have the unique ability to be activated by their own ligand, the RXR ligand (i.e., 9-cis retinoic acid), or both ligands together^11,17. […]

Structure (SMILES): CC(C)CC[C@@H](O)[C@@H](C)[C@H]1CC[C@H]2[C@@H]3CC=C4C[C@@H](O)CC[C@]4(C)[C@H]3CC[C@]12C [22(R)-hydroxycholesterol]
- maximal induction: 20 fold
